Our source for the EC50 values is ChEMBL document CHEMBL5725801, “Fused heterocyclic compounds as CaM kinase inhibitors” (2018).

“And” between values parts separate entries of the source, which are not always exact repeats. Equal entries are not always repeated.

The assay can be described thus: CaMKII Cell-Based Activity: CaMKII activity in neonatal rat ventricular myocytes (NRVM) was measured by monitoring the phosphorylation level of phospholamban using high-content imaging. NRVMs were plated in a clear bottom 384-well plate in medium supplemented with 10% fetal bovine serum (FBS) and incubated at 37° C., 5% CO2 overnight. The medium was changed to a serum-free medium and compounds were dosed to the cells. The cells were incubated at 37° C., 5% CO2 for 4 hours and were then treated with 100 nM ATX-II (Alomone Labs) to activate CaMKII. 10 minutes after the addition of ATX-II, the cells were fixed with 4% formaldehyde followed by permeabilization with 0.1% triton X100. The fixed cells were stained with an anti-phospho-phospholamban primary antibody (Santa Cruz Biotechnology) and an Alexa488-labeled anti-rabbit IgG secondary antibody (Life Technologies Corporation) as well as Hoechst 33342 (Life Technologies Corporation). The cells were imaged using an ArrayScan VTI (Cellomics) and analyzed for cells containing a positive fluorescent signal at 485 nm, reported as % responder. The % responders were plotted against the compound concentration to determine the compounds EC50.
`CCN(CC)CCNC(=O)c1ccnc(-c2cnn3ccc(-c4cccs4)nc23)c1`: the half-maximal effective concentration (EC50) was determined as 17.1 nM.
Turning to `CCN(CC)[C@@H](C)CNC(=O)c1ccnc(-c2cnn3ccc(-c4cccs4)nc23)c1`, the midpoint of the response, the EC50, lay at 21.4 nM.
The compound `C[C@@H](CNC(=O)c1ccnc(-c2cnn3ccc(-c4cccs4)nc23)c1)NCCO` gave a half-maximal effective concentration (EC50) of 301 nM.
`O=C(NC[C@@H]1CCCN1)c1ccnc(-c2cnn3ccc(-c4cccs4)nc23)c1` registered a 50% effective concentration (EC50) of 125 nM.
`CCN(CC)C(C)CNC(=O)c1ccnc(-c2cnn3ccc(-c4ccccc4)nc23)c1` (centres undefined) showed an EC50 of 103 nM.
In turn, `CCC(CNC(=O)c1ccnc(-c2cnn3ccc(-c4cccs4)nc23)c1)NC(C)C` (centres undefined) displayed an EC50 of 60 nM.
`C[C@@H](CNC(=O)c1ccnc(-c2cnn3ccc(-c4cccs4)nc23)c1)NCCF` had an EC50 of 95.2 nM.
The compound `O=C(NCC1CCCCN1)c1ccnc(-c2cnn3ccc(-c4cccs4)nc23)c1` (centres undefined) showed an EC50 of 288 nM.
`CCN(CC)[C@@H](C)CNC(=O)c1ccnc(-c2cnn3ccc(-c4ccccc4)nc23)c1` returned a concentration giving a half-maximal response (EC50) of 29 nM. Against the preceding compound, the EC50 is about 9.9-fold lower.
In turn, `O=C(NC[C@@H]1C[C@H](F)CN1)c1ccnc(-c2cnn3ccc(-c4cccs4)nc23)c1` had a concentration giving a half-maximal response (EC50) of 386 nM.
Regarding `CCC[C@@]1(CNC(=O)c2ccnc(-c3cnn4ccc(-c5cccs5)nc34)c2)CCCN1`, the EC50 was found to be 99.2 nM.
`CCCN[C@@H](C)CNC(=O)c1ccnc(-c2cnn3ccc(-c4cccs4)nc23)c1`: the response was half-maximal at 65.2 nM (EC50). This EC50 is about 1.5-fold lower than that of the compound before.
Compound `C[C@H](N)CNC(=O)c1ccnc(-c2cnn3ccc(-c4cccs4)nc23)c1` displayed a concentration for a half-maximal effect (EC50) of 62.2 nM. This EC50 and that of the compound before are within 1.5-fold of each other.
Regarding `C[C@@H](CNC(=O)c1ccnc(-c2cnn3ccc(-c4cccs4)nc23)c1)NCC1CC1`, the half-maximal effective concentration (EC50) came to 15.1 nM. This EC50 lies about 4.1-fold lower than the previous one.
`O=C(NC[C@]1(CC2CC2)CCCN1)c1ccnc(-c2cnn3ccc(-c4cccs4)nc23)c1` came in with a 50% effective concentration (EC50) of 66.9 nM.
`O=C(NC[C@@H]1CCN1)c1ccnc(-c2cnn3ccc(-c4cccs4)nc23)c1` yielded an EC50 of 132 nM.
`CCN[C@@H](C)CNC(=O)c1ccnc(-c2cnn3ccc(-c4cccs4)nc23)c1` displayed a half-maximal effective concentration (EC50) of 33 nM.
With `CCN(CC(F)F)[C@@H](C)CNC(=O)c1ccnc(-c2cnn3ccc(-c4cccs4)nc23)c1`, the EC50 worked out at 197 nM.
`CCN(CC)C(C)CNC(=O)c1ccnc(-c2cnn3ccc(-c4cccs4)nc23)c1` (centres undefined) showed an EC50 of 35.4 nM.
The same measure for `C[C@@H](NC(=O)c1ccnc(-c2cnn3ccc(-c4cccs4)nc23)c1)[C@@H]1CCCN1`: 518 nM; for `O=C(NCC1CCCCCN1)c1ccnc(-c2cnn3ccc(-c4cccs4)nc23)c1` (centres undefined): 347 nM.
The same measure for `CC(C)N[C@@H](C)CNC(=O)c1ccnc(-c2cnn3ccc(-c4cccs4)nc23)c1`: 166 nM.
With `CN1CCC[C@H]1CNC(=O)c1ccnc(-c2cnn3ccc(-c4cccs4)nc23)c1`, the EC50 was 173 nM.
`O=C(NC[C@H]1CCN1)c1ccnc(-c2cnn3ccc(-c4cccs4)nc23)c1` returned a concentration giving a half-maximal response (EC50) of 126 nM.
On to `CCN[C@H](C)CNC(=O)c1ccnc(-c2cnn3ccc(-c4cccs4)nc23)c1`, for which a half-maximal effect (EC50) was put at 34.8 nM. This EC50 is about 3.6-fold lower than that of the compound before.
The same measure for `CC[C@@]1(CNC(=O)c2ccnc(-c3cnn4ccc(-c5cccs5)nc34)c2)CCCN1`: 129 nM; for `C[C@@]1(CNC(=O)c2ccnc(-c3cnn4ccc(-c5cccs5)nc34)c2)CCCN1`: 142 nM; for `CCC(N)CNC(=O)c1ccnc(-c2cnn3ccc(-c4cccs4)nc23)c1` (centres undefined): 22.9 nM.
Regarding `C[C@@H](CNC(=O)c1ccnc(-c2cnn3ccc(-c4cccs4)nc23)c1)NCC(F)F`, the half-maximal effective concentration (EC50) was 443 nM and 149 nM.
In turn, `CCN[C@@H](CC)CNC(=O)c1ccnc(-c2cnn3ccc(-c4cccs4)nc23)c1` showed an EC50 of 43.3 nM.
Compound `CN(C)CCNC(=O)c1ccnc(-c2cnn3ccc(-c4cccs4)nc23)c1` registered a 50% effective concentration (EC50) of 116 nM.
The compound `CC(C)C[C@@]1(CNC(=O)c2ccnc(-c3cnn4ccc(-c5cccs5)nc34)c2)CCCN1` displayed a half-maximal effective concentration (EC50) of 66 nM.
`C[C@@H](CNC(=O)c1ccnc(-c2cnn3ccc(-c4cccs4)nc23)c1)NCC(F)(F)F` came in with an EC50 of 717 nM.
In turn, `O=C(NCC12CCCN1CCC2)c1ccnc(-c2cnn3ccc(-c4cccs4)nc23)c1` gave an EC50 of 41.5 nM.
